The target of one data set is T1, Adenosine receptor A1 (Homo sapiens, UniProt P30542).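 Further: radioligand binding assay at the adenosine A1 receptor, with DPCPX serving as the labelled ligand; in other assays of this panel Not Active means under 50% inhibition at 10 µM.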
T1 sequence (P30542 whole entry): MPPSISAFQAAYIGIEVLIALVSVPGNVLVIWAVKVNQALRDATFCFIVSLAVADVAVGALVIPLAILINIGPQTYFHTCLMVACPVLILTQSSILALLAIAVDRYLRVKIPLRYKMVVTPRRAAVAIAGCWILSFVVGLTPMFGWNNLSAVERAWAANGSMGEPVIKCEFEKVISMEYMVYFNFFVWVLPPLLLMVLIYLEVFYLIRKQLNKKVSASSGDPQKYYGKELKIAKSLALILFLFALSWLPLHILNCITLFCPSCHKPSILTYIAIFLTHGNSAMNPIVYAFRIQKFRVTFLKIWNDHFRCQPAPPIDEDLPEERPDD
Type of data set: cell membranes, CHO, Membrane. The note with it: cho.

Data set [1] deals with Voltage-gated inwardly rectifying potassium channel KCNH2 (Homo sapiens, UniProt Q12809). As to conditions: hek293.
Sequence of Voltage-gated inwardly rectifying potassium channel KCNH2 (Q12809 whole entry): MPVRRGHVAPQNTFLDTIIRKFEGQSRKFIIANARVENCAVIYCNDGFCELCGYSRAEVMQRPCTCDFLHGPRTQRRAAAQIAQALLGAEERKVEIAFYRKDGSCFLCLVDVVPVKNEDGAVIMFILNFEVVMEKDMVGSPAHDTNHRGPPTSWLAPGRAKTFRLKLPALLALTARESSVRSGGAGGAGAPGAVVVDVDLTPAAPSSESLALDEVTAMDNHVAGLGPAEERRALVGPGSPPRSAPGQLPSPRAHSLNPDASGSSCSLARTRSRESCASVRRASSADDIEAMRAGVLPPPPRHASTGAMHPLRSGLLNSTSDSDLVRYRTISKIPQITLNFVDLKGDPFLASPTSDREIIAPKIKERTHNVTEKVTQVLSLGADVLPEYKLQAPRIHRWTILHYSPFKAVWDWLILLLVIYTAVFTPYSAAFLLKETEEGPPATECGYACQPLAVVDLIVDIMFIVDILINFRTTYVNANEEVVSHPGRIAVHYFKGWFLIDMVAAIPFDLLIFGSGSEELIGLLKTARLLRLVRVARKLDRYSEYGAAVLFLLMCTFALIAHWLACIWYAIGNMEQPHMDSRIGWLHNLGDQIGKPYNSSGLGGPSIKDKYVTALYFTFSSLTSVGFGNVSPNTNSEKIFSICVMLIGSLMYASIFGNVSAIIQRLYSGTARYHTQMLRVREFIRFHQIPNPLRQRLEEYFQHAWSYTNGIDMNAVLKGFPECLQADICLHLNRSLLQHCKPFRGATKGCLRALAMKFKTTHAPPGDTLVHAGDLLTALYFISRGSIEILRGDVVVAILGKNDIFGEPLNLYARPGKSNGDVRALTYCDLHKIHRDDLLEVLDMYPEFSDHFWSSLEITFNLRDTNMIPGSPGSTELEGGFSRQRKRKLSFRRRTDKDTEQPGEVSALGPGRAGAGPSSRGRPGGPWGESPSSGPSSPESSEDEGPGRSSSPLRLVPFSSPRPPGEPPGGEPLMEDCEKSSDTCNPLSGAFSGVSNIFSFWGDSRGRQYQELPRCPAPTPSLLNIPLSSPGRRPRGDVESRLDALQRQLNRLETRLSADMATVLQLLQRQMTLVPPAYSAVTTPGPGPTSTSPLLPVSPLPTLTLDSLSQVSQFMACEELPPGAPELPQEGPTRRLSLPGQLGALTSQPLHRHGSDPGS
The nature of data set [2]: DRUGMATRIX: Calcium Channel Type L, Phenylalkylamine radioligand binding (ligand: [3H] (-)-Desmethoxyverapamil (D-888)). Type of data set: cell membranes, Rattus norvegicus, Wistar, Brain, Membrane. As to conditions: Not Active = under 50% inhibition at 10 µM.
Data set [3] addresses Receptor tyrosine-protein kinase erbB-2 (Homo sapiens, UniProt P04626). In words: biochemical. Type of data set: cell-based, Insect cells.
Data set [4] is described as follows: DRUGMATRIX: GABAA, Flunitrazepam, Central radioligand binding (ligand: [3H] Flunitrazepam). Format: cell membranes, Rattus norvegicus, Wistar, Brain, Membrane. As to conditions: Not Active = under 50% inhibition at 10 µM.
Data set [5] concerns the target T2, Neuropeptide Y receptor type 2 (Homo sapiens, UniProt P49146). Further: in other assays of this panel Not Active means under 50% inhibition at 10 µM.
T2 sequence (P49146 whole entry): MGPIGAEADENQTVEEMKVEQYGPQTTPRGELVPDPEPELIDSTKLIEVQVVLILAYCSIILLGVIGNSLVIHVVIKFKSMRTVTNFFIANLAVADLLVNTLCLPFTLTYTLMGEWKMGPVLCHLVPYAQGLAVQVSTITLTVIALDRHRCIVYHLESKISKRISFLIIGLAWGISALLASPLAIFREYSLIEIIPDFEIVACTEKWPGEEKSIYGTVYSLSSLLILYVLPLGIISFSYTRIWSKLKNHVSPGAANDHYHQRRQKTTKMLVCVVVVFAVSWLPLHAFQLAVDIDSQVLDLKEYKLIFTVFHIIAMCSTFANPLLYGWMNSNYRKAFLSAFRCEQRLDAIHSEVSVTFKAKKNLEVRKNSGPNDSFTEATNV
Type of data set: cell membranes, Membrane. The note with it: kan-ts.

For a further data set, the target named is Insulin receptor (Rattus norvegicus, UniProt P15127). Type of data set: cell membranes, Wistar, Liver, Membrane. Further: in other assays of this panel Not Active means under 50% inhibition at 10 µM.
Sequence of Insulin receptor (P15127 27-759 limits assumed): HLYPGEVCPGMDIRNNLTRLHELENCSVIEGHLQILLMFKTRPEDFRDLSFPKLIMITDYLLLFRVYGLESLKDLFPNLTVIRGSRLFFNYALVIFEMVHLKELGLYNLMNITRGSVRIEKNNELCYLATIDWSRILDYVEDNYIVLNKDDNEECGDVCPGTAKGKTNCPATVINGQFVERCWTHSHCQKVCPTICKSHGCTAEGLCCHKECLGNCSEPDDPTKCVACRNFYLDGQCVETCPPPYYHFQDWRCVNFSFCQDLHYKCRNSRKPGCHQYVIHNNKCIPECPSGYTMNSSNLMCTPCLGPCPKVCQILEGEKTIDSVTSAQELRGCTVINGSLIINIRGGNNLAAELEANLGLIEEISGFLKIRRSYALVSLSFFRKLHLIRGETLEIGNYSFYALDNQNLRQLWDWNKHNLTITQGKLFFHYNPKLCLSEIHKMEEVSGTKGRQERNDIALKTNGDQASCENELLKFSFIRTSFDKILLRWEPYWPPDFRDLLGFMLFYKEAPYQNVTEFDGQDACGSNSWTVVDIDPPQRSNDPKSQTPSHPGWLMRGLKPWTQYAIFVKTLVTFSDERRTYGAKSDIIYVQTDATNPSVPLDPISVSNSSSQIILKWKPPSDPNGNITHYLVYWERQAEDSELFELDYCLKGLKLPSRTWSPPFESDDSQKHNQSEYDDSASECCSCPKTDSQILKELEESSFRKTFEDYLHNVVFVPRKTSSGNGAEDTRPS
Sequence of Insulin receptor (P15127 764-1383 limits assumed): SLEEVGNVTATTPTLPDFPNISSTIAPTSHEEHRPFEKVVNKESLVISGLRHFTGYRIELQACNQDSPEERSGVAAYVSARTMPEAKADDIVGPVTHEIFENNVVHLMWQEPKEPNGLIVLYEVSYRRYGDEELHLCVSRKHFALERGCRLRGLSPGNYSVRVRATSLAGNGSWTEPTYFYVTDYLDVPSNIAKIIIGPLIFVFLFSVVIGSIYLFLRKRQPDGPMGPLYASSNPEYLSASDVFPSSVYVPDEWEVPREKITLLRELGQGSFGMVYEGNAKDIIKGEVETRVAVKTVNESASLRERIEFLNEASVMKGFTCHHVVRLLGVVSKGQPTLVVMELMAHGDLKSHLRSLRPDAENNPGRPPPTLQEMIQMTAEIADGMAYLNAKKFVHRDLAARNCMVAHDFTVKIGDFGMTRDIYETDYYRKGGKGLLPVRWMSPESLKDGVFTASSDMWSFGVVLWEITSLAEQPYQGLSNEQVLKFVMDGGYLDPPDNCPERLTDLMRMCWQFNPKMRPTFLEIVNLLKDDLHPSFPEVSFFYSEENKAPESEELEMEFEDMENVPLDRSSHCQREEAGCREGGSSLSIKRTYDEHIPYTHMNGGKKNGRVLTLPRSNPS
In data set [6] the target is T3, Alpha-2C adrenergic receptor (Homo sapiens, UniProt P18825).
T3 sequence (P18825 whole entry): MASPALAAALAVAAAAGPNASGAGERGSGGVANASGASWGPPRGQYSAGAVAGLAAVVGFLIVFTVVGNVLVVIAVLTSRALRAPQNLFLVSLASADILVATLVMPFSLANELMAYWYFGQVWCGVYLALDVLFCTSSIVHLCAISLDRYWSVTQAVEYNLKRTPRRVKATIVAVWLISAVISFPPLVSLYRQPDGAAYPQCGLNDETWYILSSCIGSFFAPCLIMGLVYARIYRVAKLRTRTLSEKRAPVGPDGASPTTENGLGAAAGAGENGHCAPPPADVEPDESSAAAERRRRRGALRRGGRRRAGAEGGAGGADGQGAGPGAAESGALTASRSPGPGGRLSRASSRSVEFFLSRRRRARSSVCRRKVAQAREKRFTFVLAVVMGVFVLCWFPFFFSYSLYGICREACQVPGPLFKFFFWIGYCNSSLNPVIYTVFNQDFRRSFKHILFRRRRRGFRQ
The data set can be described thus: DRUGMATRIX: Adrenergic Alpha-2C radioligand binding (ligand: [3H] MK-912). Type of data set: cell membranes, Sf9, Membrane.

Data set [7] deals with 5-hydroxytryptamine receptor 1B (Rattus norvegicus, UniProt P28564). Format: cell membranes, Wistar, Cerebral cortex, Membrane.
Sequence of 5-hydroxytryptamine receptor 1B (P28564 whole entry): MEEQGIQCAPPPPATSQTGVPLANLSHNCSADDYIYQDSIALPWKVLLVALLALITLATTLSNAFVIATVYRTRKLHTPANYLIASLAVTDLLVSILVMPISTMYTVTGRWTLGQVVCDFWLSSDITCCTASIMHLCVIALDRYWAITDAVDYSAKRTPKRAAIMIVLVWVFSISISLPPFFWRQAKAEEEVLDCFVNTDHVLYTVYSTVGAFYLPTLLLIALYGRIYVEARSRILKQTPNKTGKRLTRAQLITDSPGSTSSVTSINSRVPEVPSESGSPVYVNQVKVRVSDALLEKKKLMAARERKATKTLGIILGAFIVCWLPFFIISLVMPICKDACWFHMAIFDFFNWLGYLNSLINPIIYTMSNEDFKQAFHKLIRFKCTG
Data set [8] concerns the target T4, Alpha-2A adrenergic receptor (Homo sapiens, UniProt P08913). Further: in other assays of this panel Not Active means under 50% inhibition at 10 µM.
T4 sequence (P08913 whole entry): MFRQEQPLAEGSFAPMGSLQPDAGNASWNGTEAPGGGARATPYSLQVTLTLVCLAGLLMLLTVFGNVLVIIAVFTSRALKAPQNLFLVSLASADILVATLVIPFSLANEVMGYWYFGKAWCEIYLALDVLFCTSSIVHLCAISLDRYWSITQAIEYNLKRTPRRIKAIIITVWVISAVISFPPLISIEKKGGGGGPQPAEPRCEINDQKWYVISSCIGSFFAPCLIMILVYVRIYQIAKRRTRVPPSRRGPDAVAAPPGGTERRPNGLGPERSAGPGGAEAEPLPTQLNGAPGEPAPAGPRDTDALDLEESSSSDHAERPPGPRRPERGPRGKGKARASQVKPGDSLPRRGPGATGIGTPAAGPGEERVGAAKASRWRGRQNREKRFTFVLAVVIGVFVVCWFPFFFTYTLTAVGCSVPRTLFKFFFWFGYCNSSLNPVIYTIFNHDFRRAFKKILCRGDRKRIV
Format: cell membranes, Sf9, Membrane.

The target in data set [9] is Beta-1 adrenergic receptor (Homo sapiens, UniProt P08588). The data set can be described thus: DRUGMATRIX: Adrenergic beta1 radioligand binding (ligand: [125I] Cyanopindolol). Format: cell membranes, CHO-K1, Membrane. As to conditions: cho-k1; Not Active = under 50% inhibition at 10 µM.
Sequence of Beta-1 adrenergic receptor (P08588 whole entry): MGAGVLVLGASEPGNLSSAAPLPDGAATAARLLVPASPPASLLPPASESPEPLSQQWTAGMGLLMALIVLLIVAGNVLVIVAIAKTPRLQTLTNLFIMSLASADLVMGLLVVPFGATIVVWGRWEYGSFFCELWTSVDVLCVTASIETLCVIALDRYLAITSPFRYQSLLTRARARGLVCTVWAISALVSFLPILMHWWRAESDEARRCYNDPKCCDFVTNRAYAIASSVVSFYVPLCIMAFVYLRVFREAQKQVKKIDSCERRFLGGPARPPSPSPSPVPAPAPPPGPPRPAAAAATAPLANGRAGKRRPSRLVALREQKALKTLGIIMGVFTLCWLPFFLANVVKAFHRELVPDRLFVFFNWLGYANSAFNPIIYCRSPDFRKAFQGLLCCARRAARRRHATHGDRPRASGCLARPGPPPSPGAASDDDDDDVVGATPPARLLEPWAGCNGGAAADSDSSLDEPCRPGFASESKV
Data set [10] addresses T5, Type-2 angiotensin II receptor (Homo sapiens, UniProt P50052).
T5 sequence (P50052 whole entry): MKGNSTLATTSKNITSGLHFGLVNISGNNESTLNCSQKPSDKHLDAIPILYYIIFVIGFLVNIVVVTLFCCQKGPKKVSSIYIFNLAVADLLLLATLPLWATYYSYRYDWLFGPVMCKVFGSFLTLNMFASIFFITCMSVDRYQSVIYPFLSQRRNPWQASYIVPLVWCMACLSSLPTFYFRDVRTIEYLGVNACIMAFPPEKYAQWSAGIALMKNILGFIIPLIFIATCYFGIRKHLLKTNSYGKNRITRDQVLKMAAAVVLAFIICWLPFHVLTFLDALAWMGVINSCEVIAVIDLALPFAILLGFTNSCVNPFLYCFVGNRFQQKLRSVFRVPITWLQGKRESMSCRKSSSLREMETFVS
Type of data set: cell-based. The note with it: cho-k1.

IC50 and Ki data for seven molecules are collected here from ChEMBL document CHEMBL1909046, “DrugMatrix in vitro pharmacology data”.

By IC50 is commonly meant the concentration that inhibits the measured activity by half. Broadly, the Ki is the dissociation constant of the complex between target and ligand, obtained from inhibition or displacement.

Sequence of Receptor tyrosine-protein kinase erbB-2 (P04626 whole entry): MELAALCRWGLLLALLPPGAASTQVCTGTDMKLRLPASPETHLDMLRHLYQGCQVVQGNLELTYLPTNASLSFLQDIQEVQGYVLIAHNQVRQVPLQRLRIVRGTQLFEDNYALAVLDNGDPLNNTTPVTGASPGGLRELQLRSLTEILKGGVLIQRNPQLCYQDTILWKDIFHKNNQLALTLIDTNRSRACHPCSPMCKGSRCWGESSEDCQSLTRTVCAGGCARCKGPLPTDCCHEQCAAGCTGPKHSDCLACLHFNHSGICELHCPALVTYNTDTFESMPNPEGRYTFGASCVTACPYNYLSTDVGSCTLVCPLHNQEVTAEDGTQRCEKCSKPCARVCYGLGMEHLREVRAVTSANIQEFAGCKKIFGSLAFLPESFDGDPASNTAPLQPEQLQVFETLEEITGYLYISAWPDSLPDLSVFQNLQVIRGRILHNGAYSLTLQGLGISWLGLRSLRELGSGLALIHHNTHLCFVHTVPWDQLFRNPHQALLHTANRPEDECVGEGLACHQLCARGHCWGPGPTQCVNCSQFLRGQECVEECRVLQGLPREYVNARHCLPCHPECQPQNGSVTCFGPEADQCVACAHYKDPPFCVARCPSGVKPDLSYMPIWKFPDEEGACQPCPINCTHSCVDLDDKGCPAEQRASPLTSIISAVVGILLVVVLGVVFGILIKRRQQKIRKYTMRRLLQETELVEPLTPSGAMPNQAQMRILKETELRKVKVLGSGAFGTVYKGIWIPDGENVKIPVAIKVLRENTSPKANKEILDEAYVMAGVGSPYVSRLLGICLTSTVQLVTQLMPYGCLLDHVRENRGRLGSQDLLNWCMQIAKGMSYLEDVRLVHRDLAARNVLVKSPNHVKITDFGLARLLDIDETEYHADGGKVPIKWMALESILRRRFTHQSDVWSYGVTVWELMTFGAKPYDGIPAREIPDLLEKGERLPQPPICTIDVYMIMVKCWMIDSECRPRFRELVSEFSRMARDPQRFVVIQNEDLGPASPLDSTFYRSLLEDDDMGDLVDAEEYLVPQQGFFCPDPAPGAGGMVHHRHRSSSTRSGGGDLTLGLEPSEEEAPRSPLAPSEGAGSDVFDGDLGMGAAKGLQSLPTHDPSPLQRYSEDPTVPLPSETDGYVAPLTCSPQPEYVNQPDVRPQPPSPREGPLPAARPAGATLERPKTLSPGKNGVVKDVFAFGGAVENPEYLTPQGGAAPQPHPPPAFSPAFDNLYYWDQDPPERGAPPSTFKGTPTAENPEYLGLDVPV

As for `CCCC[C@@H](CC)COC(=O)c1ccccc1C(=O)OC[C@@H](CC)CCCC` [BIS(2-ETHYLHEXYL)PHTHALATE], the IC50 result (against Adenosine receptor A1; in data set [1]; in [2]; in [3] (insect cells); in [4]; in [5]) was “Not Active” throughout. For the same molecule, the IC50 entry (against Insulin receptor; in data set [6] (sf9); in data set [7]; in [8] (sf9); in [9]; in [10]) was “Not Active” throughout. Further, the Ki result in data set [1], in data set [2] and in [4] was “Not Active” each time.
As for `Oc1c(Cl)cc(Cl)cc1Sc1cc(Cl)cc(Cl)c1O` [BITHIONOL], the IC50 result against Adenosine receptor A1 was “Not Active”; in data set [1] it was “Not Active”; in [2], “Not Active”; in data set [3] (read-out: IC50), 2150 nM; in [4], “Not Active”; in [5], “Not Active”. The IC50 entry at Insulin receptor is “Not Active”; in data set [6] (read-out: IC50), 4390 nM; in data set [7], “Not Active”; in [8] (read-out: IC50), 3820 nM; in data set [9] it was “Not Active”; in [10], “Not Active”. For the same molecule, the Ki result in data set [1] was “Not Active”; in data set [2], “Not Active”; in data set [4], “Not Active”; in data set [6] (read-out: Ki) it was 638 nM; in data set [8] (read-out: Ki), 1430 nM.
Regarding `Brc1ccccc1` [BROMOBENZENE], the IC50 entry (at Adenosine receptor A1; in data set [1]; in data set [2]; in data set [3] (insect cells); in data set [4]; in [5]) was “Not Active” throughout. Besides, the IC50 entry (on Insulin receptor; in [6] (sf9); in [7]; in data set [8] (sf9); in data set [9]; in [10]) was “Not Active” each time. The Ki result in data set [1], in data set [2] and in [4] was “Not Active” in each case.
For `CCCCOC(=O)c1ccc(N)cc1` [BUTAMBEN], the IC50 result (at Adenosine receptor A1; in data set [1]; in data set [2]; in data set [3] (insect cells); in data set [4]; in data set [5]) was “Not Active” throughout. In addition, the IC50 result (on Insulin receptor; in [6] (sf9); in data set [7]; in data set [8] (sf9); in data set [9]; in data set [10]) was “Not Active” in each case. For the same molecule, the Ki result in data set [1], in [2] and in data set [4] was “Not Active” each time.
As to `CC[C@@]1(O)C(=O)OCc2c1cc1n(c2=O)Cc2cc3ccccc3nc2-1` [CAMPTOTHECIN], the IC50 result (against Adenosine receptor A1; in [1]; in data set [2]; in data set [3] (insect cells); in data set [4]; in data set [5]) was “Not Active” in each case. Moreover, the IC50 result (on Insulin receptor; in data set [6] (sf9); in data set [7]; in data set [8] (sf9); in data set [9]; in data set [10]) was “Not Active” each time. Moreover, the Ki result in data set [1], in data set [2] and in data set [4] was “Not Active” each time.
As to `COCc1c(C(C)C)nc(C(C)C)c(/C=C/[C@@H](O)C[C@@H](O)CC(=O)O)c1-c1ccc(F)cc1` [CERIVASTATIN], the IC50 entry (against Adenosine receptor A1; in [1]; in [2]; in data set [3] (insect cells); in data set [4]; in data set [5]) was “Not Active” throughout. Moreover, the IC50 result (against Insulin receptor; in data set [6] (sf9); in [7]; in [8] (sf9); in [9]; in data set [10]) was “Not Active” throughout. Further, the Ki result in [1], in data set [2] and in data set [4] was “Not Active” in each case.
As for `CC(=O)O[C@]1(C(C)=O)CC[C@H]2[C@@H]3C=C(Cl)C4=CC(=O)CC[C@]4(C)[C@H]3CC[C@@]21C` [CHLORMADINONE ACETATE], the IC50 result (against Adenosine receptor A1; in data set [1]; in data set [2]; in data set [3] (insect cells); in [4]; in data set [5]) was “Not Active” throughout. Besides, the IC50 result (at Insulin receptor; in data set [6] (sf9); in data set [7]; in [8] (sf9); in data set [9]; in data set [10]) was “Not Active” each time. Further, the Ki result in data set [1], in data set [2] and in data set [4] was “Not Active” in each case.
